Experiments:
Test in all cases: relative viability (nuclei count vs DMSO), 5 days (fraction); higher = more cells survive
[1] = compound: O=C(/C=C/c1ccccc1)NC(NC(=S)Nc1cccc2cccnc12)C(Cl)(Cl)Cl [Salubrinal] + CC1(C)CCC(c2ccc(Cl)cc2)=C(CN2CCN(c3ccc(C(=O)NS(=O)(=O)c4ccc(N[C@H](CCN5CCOCC5)CSc5ccccc5)c(S(=O)(=O)C(F)(F)F)c4)cc3)CC2)C1 [Navitoclax] (partner 0.5 µM)
Summary of the method: (§1)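 Lung cancer cell lines were pin-tool dosed in 1536-well plates on the day after seeding, with either a lone drug or a fixed anchor-drug dose plus five library-drug doses (not always all listed) in √10 steps. Nuclei were counted on 4× images after 5 days. Relative viability is the ratio of treated-well to vehicle-well nuclei counts, with each value a median of duplicate plates.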

[2] = compound: O=C(/C=C/c1ccccc1)NC(NC(=S)Nc1cccc2cccnc12)C(Cl)(Cl)Cl [Salubrinal] + CC(=O)c1c(C)c2cnc(Nc3ccc(N4CCNCC4)cn3)nc2n(C2CCCC2)c1=O [Palbociclib] (partner 0.5 µM)
Summary of the method: as §1

[3] = compound: O=C(/C=C/c1ccccc1)NC(NC(=S)Nc1cccc2cccnc12)C(Cl)(Cl)Cl [Salubrinal] + C[C@]1(O)C[C@@H](c2nc(-c3ccc4ccc(-c5ccccc5)nc4c3)c3c(N)nccn32)C1 [Linsitinib] (partner 1 µM)
Summary of the method: as §1

[4] = compound: Cc1ccc2nc(NCCN)c3ncc(C)n3c2c1 + Cc1nc(NC(=O)N2CCC[C@H]2C(N)=O)sc1-c1ccnc(C(C)(C)C(F)(F)F)c1 [Alpelisib] (partner 2 µM)
Summary of the method: as §1

UMC-11 gave a relative viability ([1]; first compound 0.08 µM) of 0.281, a relative viability ([1]; first compound 0.253 µM) of 0.301 and a relative viability ([1]; first compound 0.8 µM) of 0.329. For the same cell line, the relative viability ([1]; first compound 2.53 µM) was 0.318, the relative viability ([1]; first compound 8 µM) was 0.305 and the relative viability ([2]; first compound 0.08 µM) was 0.304. It also gave a relative viability ([2]; first compound 0.253 µM) of 0.344, a relative viability ([2]; first compound 0.8 µM) of 0.349 and a relative viability ([2]; first compound 2.53 µM) of 0.313. The relative viability ([2]; first compound 8 µM) was 0.299, the relative viability ([3]; first compound 0.08 µM) was 1.25 and the relative viability ([3]; first compound 0.253 µM) was 0.807. The relative viability ([3]; first compound 0.8 µM) was 1.21, the relative viability ([3]; first compound 2.53 µM) was 0.998 and the relative viability ([3]; first compound 8 µM) was 0.955. The relative viability ([4]; first compound 0.04 µM) was 0.946, the relative viability ([4]; first compound 0.1265 µM) was 0.906 and the relative viability ([4]; first compound 0.4 µM) was 1.03. The relative viability ([4]; first compound 1.265 µM) was 0.995 and the relative viability ([4]; first compound 4 µM) was 0.817.
